Results as given in patent US20260355196A1, “INHIBITORS AND DEGRADERS OF PIP4K PROTEIN” (Larkspur Biosciences, Inc., priority 2023, published 2026).

Each compound was assayed against T1, PIP4K2C (Homo sapiens, UniProt Q8TBX8) (assay: HiBiT PIP4K2C degradation assay in MOLT-4 cells (endogenous PIP4K2C C-terminally tagged with HiBiT)). Settings: 6 hours of incubation time, rather than 24 hours; MOLT-4, top concentration 10 micromolar; read-out: HiBIT-degradation MOLT4 PIP4k2C DC50 (6 hours, marked *).
T1 sequence (Q8TBX8 1-421): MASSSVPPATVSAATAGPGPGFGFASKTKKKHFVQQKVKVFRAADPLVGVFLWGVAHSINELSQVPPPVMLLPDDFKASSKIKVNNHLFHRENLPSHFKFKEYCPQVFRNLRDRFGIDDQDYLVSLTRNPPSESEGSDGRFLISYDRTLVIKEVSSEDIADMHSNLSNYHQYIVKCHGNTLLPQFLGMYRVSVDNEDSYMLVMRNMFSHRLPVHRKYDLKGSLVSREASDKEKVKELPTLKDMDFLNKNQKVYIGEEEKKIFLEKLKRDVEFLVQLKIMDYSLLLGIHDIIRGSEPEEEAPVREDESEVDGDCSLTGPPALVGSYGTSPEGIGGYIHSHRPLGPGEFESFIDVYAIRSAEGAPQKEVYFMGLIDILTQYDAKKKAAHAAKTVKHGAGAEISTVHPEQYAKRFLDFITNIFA
Type: cell-based
Design: untagged in primary human PBMCs and monocyte-derived dendritic cells
How it was run: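 Cells are plated onto compound dilutions (10 points, 3-fold, top 10 micromolar) and incubated 24 or 6 hours at 37 C. Lytic HiBiT detection then quantifies tagged endogenous PIP4K2C in MOLT-4, and a Hill fit yields DC50.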

| DC50 [nM] | SMILES |
| --- | --- |
| < 500 | O=C1CCC(Nc2ccc(C3CCN([C@H]4CC[C@H](C(=O)N[C@H]5CC[C@H](Nc6ncc(F)c(-c7cccc(-c8ccccc8)c7)n6)CC5)CC4)CC3)c(F)c2)C(=O)N1 (stereo partly drawn) [Compound 660, trans-(1r,4R)—N-((1r,4R)-4-((4-([1,1′-biphenyl]-3-yl)-5-fluoropyrimidin-2-yl)amino)cyclohexyl)-4-(4-(4-((2,6-dioxopiperidin-3-yl)amino)-2-fluorophenyl)piperidin-1-yl)cyclohexane-1-carboxamide] |
| < 500 | O=C1CCC(Nc2ccc(N3CCN([C@H]4CC[C@H](NC(=O)[C@H]5CC[C@H](Nc6ncc(F)c(-c7cccc(N8CCOCC8)c7)n6)CC5)CC4)CC3)c(F)c2)C(=O)N1 (stereo partly drawn) [Compound 661, trans-(1r,4R)—N-((1r,4R)-4-(4-(4-((2,6-dioxopiperidin-3-yl)amino)-2-fluorophenyl)piperazin-1-yl)cyclohexyl)-4-((5-fluoro-4-(3-morpholinophenyl)pyrimidin-2-yl)amino)cyclohexane-1-carboxamide] |
| < 500 | O=C1CCC(Nc2ccc(N3CCN([C@H]4CC[C@H](NC(=O)[C@H]5CC[C@H](Nc6ncc(F)c(-c7cccc(-c8ccccc8)c7)n6)CC5)CC4)CC3)c(F)c2)C(=O)N1 (stereo partly drawn) [Compound 662, trans-(1r,4R)-4-((4-([1,1′-biphenyl]-3-yl)-5-fluoropyrimidin-2-yl)amino)-N-((1r,4R)-4-(4-(4-((2,6-dioxopiperidin-3-yl)amino)-2-fluorophenyl)piperazin-1-yl)cyclohexyl)cyclohexane-1-carboxamide] |
| < 500 | O=C1CCC(Nc2ccc(C3CCN(C(=O)CC4(O)CCN(C(=O)O[C@H]5CC[C@H](Nc6ncc(F)c(-c7cccc(-n8ccccc8=O)c7)n6)CC5)CC4)CC3)c(F)c2)C(=O)N1 (stereo partly drawn) [Compound 663, trans-4-((5-fluoro-4-(3-(2-oxopyridin-1 (2H)-yl)phenyl)pyrimidin-2-yl)amino)cyclohexyl 4-(2-(4-(4-((2,6-dioxopiperidin-3-yl)amino)-2-fluorophenyl)piperidin-1-yl)-2-oxoethyl)-4-hydroxypiperidine-1-carboxylate] |
| < 500 | O=C1CCC(Nc2ccc(N3CCN(C4CCN(C(=O)O[C@H]5CC[C@H](Nc6ncc(F)c(-c7cccc(-c8ccccc8)c7)n6)CC5)CC4)CC3)c(F)c2)C(=O)N1 (stereo partly drawn) [Compound 664, trans-[4-[[5-fluoro-4-(3-phenylphenyl)pyrimidin-2-yl]amino]cyclohexyl]4-[4-[4-[(2,6-dioxo-3-piperidyl)amino]-2-fluoro-phenyl]piperazin-1-yl]piperidine-1-carboxylate] |
| < 500 | O=C1CCC(Nc2ccc(C3CCN(CC4(O)CCN(C(=O)[C@H]5CC[C@H](Nc6ncc(F)c(-c7cccc(N8CCOCC8)c7)n6)CC5)CC4)CC3)c(F)c2)C(=O)N1 (stereo partly drawn) [Compound 665, 3-((3-fluoro-4-(1-((1-((trans)-4-((5-fluoro-4-(3-morpholinophenyl)pyrimidin-2-yl)amino)cyclohexane-1-carbonyl)-4-hydroxypiperidin-4-yl)methyl)piperidin-4-yl)phenyl)amino)piperidine-2,6-dione] |
| < 500 | O=C1CCC(Nc2ccc(C3CCN(C4CC5(C4)CN(C(=O)O[C@H]4CC[C@H](Nc6ncc(F)c(-c7cccc(-n8ccccc8=O)c7)n6)CC4)C5)CC3)c(F)c2)C(=O)N1 (stereo partly drawn) [Compound 666, (trans)-4-((5-fluoro-4-(3-(2-oxopyridin-1 (2H)-yl)phenyl)pyrimidin-2-yl)amino)cyclohexyl 6-(4-(4-((2,6-dioxopiperidin-3-yl)amino)-2-fluorophenyl)piperidin-1-yl)-2-azaspiro[3.3]heptane-2-carboxylate] |
| < 500 | O=C1CCC(Nc2ccc(N3CCN(C[C@H]4CC[C@H](C(=O)N5CCC(Nc6ncc(F)c(-c7cccc(N8CCCOC8=O)c7)n6)CC5)CC4)CC3)c(F)c2)C(=O)N1 (stereo partly drawn) [Compound 667, 3-((3-fluoro-4-(4-((trans-4-(4-((5-fluoro-4-(3-(2-oxo-1,3-oxazinan-3-yl)phenyl)pyrimidin-2-yl)amino)piperidine-1-carbonyl)cyclohexyl)methyl)piperazin-1-yl)phenyl)amino)piperidine-2,6-dione] |
| > 5000 | O=C1CCC(Nc2ccc(N3CCC(N4CCN(C(=O)O[C@H]5CC[C@H](Nc6ncc(F)c(-c7cccc(-n8ccccc8=O)c7)n6)CC5)CC4)C(F)C3)c(F)c2)C(=O)N1 (stereo partly drawn) [Compound 668, trans-[4-[[5-fluoro-4-[3-(2-oxo-1-pyridyl)phenyl]pyrimidin-2-yl]amino]cyclohexyl]4-[1-[4-[(2,6-dioxo-3-piperidyl)amino]-2-fluoro-phenyl]-3-fluoro-4-piperidyl]piperazine-1-carboxylate] |
| < 500 | O=C1CCC(Nc2ccc(C3CCN(C(=O)C4CCN(C(=O)[C@H]5CC[C@H](Nc6ncc(F)c(-c7cccc(-n8ccccc8=O)c7)n6)CC5)CC4)CC3)c(F)c2)C(=O)N1 (stereo partly drawn) [Compound 669, trans-3-((3-fluoro-4-(1-(1-(4-((5-fluoro-4-(3-(2-oxopyridin-1 (2H)-yl)phenyl)pyrimidin-2-yl)amino)cyclohexane-1-carbonyl)piperidine-4-carbonyl)piperidin-4-yl)phenyl)amino)piperidine-2,6-dione] |
| < 500 | O=C1CCC(Nc2ccc(C3CCN(C[C@H]4CC[C@H](C(=O)N5CCC(Nc6ncc(F)c(-c7cccc(N8CCOCC8)c7)n6)CC5)CC4)CC3)c(F)c2)C(=O)N1 (stereo partly drawn) [Compound 671, trans-3-((3-fluoro-4-(1-((4-(4-((5-fluoro-4-(3-morpholinophenyl)pyrimidin-2-yl)amino)piperidine-1-carbonyl)cyclohexyl)methyl)piperidin-4-yl)phenyl)amino)piperidine-2,6-dione] |
| < 500 | O=C1CCC(Nc2ccc(C3CCN(CC4CCN(C(=O)[C@H]5CC[C@H](Nc6ncc(F)c(-c7cccc(N8CCOCC8)c7)n6)CC5)CC4)CC3)c(F)c2)C(=O)N1 (stereo partly drawn) [Compound 672, trans-3-((3-fluoro-4-(1-((1-(4-((5-fluoro-4-(3-morpholinophenyl)pyrimidin-2-yl)amino)cyclohexane-1-carbonyl)piperidin-4-yl)methyl)piperidin-4-yl)phenyl)amino)piperidine-2,6-dione] |
| < 500 | O=C1CCC(Nc2ccc(N3CCN(C4CCN(C(=O)O[C@H]5CC[C@H](Nc6ncc(F)c(-c7cccc(N8CCOCC8)c7)n6)CC5)CC4)CC3)c(F)c2)C(=O)N1 (stereo partly drawn) [Compound 673, trans-4-((5-fluoro-4-(3-morpholinophenyl)pyrimidin-2-yl)amino)cyclohexyl 4-(4-(4-((2,6-dioxopiperidin-3-yl)amino)-2-fluorophenyl)piperazin-1-yl)piperidine-1-carboxylate] |
| < 500 | O=C1CCC(Nc2ccc(N3CCN(C4CCN(C(=O)O[C@H]5CC[C@H](Nc6ncc(F)c(-c7cccc(N8CCCOC8=O)c7)n6)CC5)CC4)CC3)c(F)c2)C(=O)N1 (stereo partly drawn) [Compound 674, trans-4-((5-fluoro-4-(3-(2-oxo-1,3-oxazinan-3-yl)phenyl)pyrimidin-2-yl)amino)cyclohexyl 4-(4-(4-((2,6-dioxopiperidin-3-yl)amino)-2-fluorophenyl)piperazin-1-yl)piperidine-1-carboxylate] |
| < 500 | O=C1CCC(Nc2ccc(C3CCN(C4CCN(C(=O)O[C@H]5CC[C@H](Nc6ncc(F)c(-c7cccc(N8CCOCC8)c7)n6)CC5)CC4)CC3)c(F)c2)C(=O)N1 (stereo partly drawn) [Compound 676, trans-4-((5-fluoro-4-(3-morpholinophenyl)pyrimidin-2-yl)amino)cyclohexyl 4-(4-((2,6-dioxopiperidin-3-yl)amino)-2-fluorophenyl)-[1,4′-bipiperidine]-1′-carboxylate] |
| < 500 | O=C1CCC(Nc2ccc(C3CCN(C4CCN(C(=O)O[C@H]5CC[C@H](Nc6ncc(F)c(-c7cccc(N8CCCOC8=O)c7)n6)CC5)CC4)CC3)c(F)c2)C(=O)N1 (stereo partly drawn) [Compound 677, trans-4-((5-fluoro-4-(3-(2-oxo-1,3-oxazinan-3-yl)phenyl)pyrimidin-2-yl)amino)cyclohexyl 4-(4-((2,6-dioxopiperidin-3-yl)amino)-2-fluorophenyl)-[1,4′-bipiperidine]-1′-carboxylate] |

Same assay, conditions: read-out: HiBIT-degradation MOLT4 PIP4k2C DC50 (6 hours, marked *); 6 hours of incubation time, rather than 24 hours; MOLT-4, top concentration 10 micromolar

| DC50 [nM] | SMILES |
| --- | --- |
| > 5000 | O=C1CCC(Nc2ccc(N3CCN(C[C@H]4CC[C@H](C(=O)N5CCC(Nc6ncc(F)c(-c7cccc(N8CCOCC8)c7)n6)CC5)CC4)CC3)c(F)c2)C(=O)N1 (stereo partly drawn) [Compound 670, 3-((3-fluoro-4-(4-((trans-4-(4-((5-fluoro-4-(3-morpholinophenyl)pyrimidin-2-yl)amino)piperidine-1-carbonyl)cyclohexyl)methyl)piperazin-1-yl)phenyl)amino) piperidine-2,6-dione] |
| < 500 | O=C1CCC(Nc2ccc(N3CCN(C4CCN(C(=O)O[C@H]5CC[C@H](Nc6ncc(F)c(-c7cccc(N8CCCCC8=O)c7)n6)CC5)CC4)CC3)c(F)c2)C(=O)N1 (stereo partly drawn) [Compound 675, trans-4-((5-fluoro-4-(3-(2-oxopiperidin-1-yl)phenyl)pyrimidin-2-yl)amino)cyclohexyl 4-(4-(4-((2,6-dioxopiperidin-3-yl)amino)-2-fluorophenyl)piperazin-1-yl)piperidine-1-carboxylate] |
